According to paper PMC7934871 (JCI Insight, 2021):
Non-standard residues stand in square brackets, D forms with d. No end group written: not given here. pY = N[C@@H](Cc1ccc(OP(=O)(O)O)cc1)C(=O)O

Key:
pY705-STAT3 = assay: IL-6–induced pY705-STAT3 in splenic CD8+ T cells, Western blotting; assay type: cell-based; conditions: mouse splenic CD8+ T cells
exportins 1–6 = assay: Immunoprecipitation of FAM-labeled peptide and Western blotting, exportins 1–6; assay type: binding, human; conditions: anti-FITC (FAM) immunoprecipitation, Western blotting, U251 cells
Method: Data are representative of 3 independent experiments (n = 3).
Whole cell lysates or tissue homogenates were prepared by using RIPA lysis buffer (50 mM Tris at pH 7.4, 150 mM NaCl, 1 mM EDTA, 0.5% NP-40, 1 mM NaF, 15% glycerol, and 20 mM β-glycerophosphate). A protease inhibitor cocktail (Mini Protease Inhibitor Cocktail; Roche) and a tyrosine phosphatase inhibitor, sodium orthovanadate (Na3VO4, 1 mM), were added freshly to the lysis buffer. Protein amounts were determined by BCA using a Thermo Fisher Scientific kit. Normalized protein amounts were subjected to an SDS-PAGE and transferred onto a nitrocellulose membrane for Western blotting. Proteins were visualized with a chemiluminescent detection kit (Pierce, Thermo Fisher Scientific). The protein levels for STAT1 (sc-346, E-23), STAT3 (sc-482, C-20), STAT5 (sc-74442, A-9), Crm1 (exportin 1) (sc-5595, H-300), CAS (exportin 2) (sc-271537, H-2), exportin 5 (sc-66885, H-300), and exportin 7 (sc-98639, H-82) were determined using antibodies from Santa Cruz Biotechnology Inc. Anti–exportin 3 (exportin T, 630622, LOS1 05-1525), anti–exportin 4 (3499-1), and anti–exportin 6 (11408-1-AP) were from MilliporeSigma, Epitomics, and Proteintech, respectively. […]

STAT5 = assay: Immunoprecipitation and Western blotting, STAT5; assay type: binding, human; conditions: immunoprecipitation, Western blotting, U251 cells
Excerpt: Figure 2 PS-acet.-STAT3-peptide specifically binds STAT3 in the nucleus. (A) Penetration of PS-acet.-STAT3 peptide and its colocalization with STAT3 protein in U251 cells are confirmed by confocal microscopy. Scale bars: 50 μm. Insets: original magnification, ×40. (B) PS-acet.-STAT3 peptide specifically binds to STAT3 protein, not STAT1 and STAT5 proteins, shown in U251 cells by immunoprecipitation followed by Western blotting (left panel). Expression of total STAT1, STAT3, and STAT5 was confirmed by Western blotting in U251 cells (input protein level, right panel).
Whole cell lysates or tissue homogenates were prepared by using RIPA lysis buffer (50 mM Tris at pH 7.4, 150 mM NaCl, 1 mM EDTA, 0.5% NP-40, 1 mM NaF, 15% glycerol, and 20 mM β-glycerophosphate). […] Protein amounts were determined by BCA using a Thermo Fisher Scientific kit. […] The protein levels for STAT1 (sc-346, E-23), STAT3 (sc-482, C-20), STAT5 (sc-74442, A-9), Crm1 (exportin 1) (sc-5595, H-300), CAS (exportin 2) (sc-271537, H-2), exportin 5 (sc-66885, H-300), and exportin 7 (sc-98639, H-82) were determined using antibodies from Santa Cruz Biotechnology Inc. Anti–exportin 3 (exportin T, 630622, LOS1 05-1525), anti–exportin 4 (3499-1), and anti–exportin 6 (11408-1-AP) were from MilliporeSigma, Epitomics, and Proteintech, respectively. […]

[1] = test system: EGF-mediated ERK phosphorylation; assay: EGF-mediated ERK phosphorylation, Western blotting; assay type: cell-based; conditions: preincubated 2 hours, 30 ng/mL EGF for 30 minutes
Method: Figure 8 PS-Gp130 and PS-MYC blocking peptides efficiently internalize into tumor cells to exert their functions. (A) For 1 hour 1 μM of PS-conjugated MYC (PS-MYC) and Gp130 (PS-Gp130) were incubated with cancer cells. PS-scramble MYC (PS-SC-MYC) was used as a control for PS-MYC. The peptide uptake was visualized by confocal microscopy and quantified by flow cytometry. Data are representative of 3 independent experiments (n = 3). (B) Upper panel: The binding of PS-Gp130 and STAT3 was examined by immunoprecipitation and Western blotting. PO-Gp130 was used as a control. For 4 hours prior to harvest, 1 μM of peptide was incubated with cells. Lower panel: PS-Gp130 inhibits IL-6–induced phosphorylation of STAT3 and p44/42 but not EGF-mediated signaling. The cells were preincubated with PS-Gp130 for 2 hours and then stimulated with 20 ng/mL of IL-6 or 30 ng/mL of EGF for 30 minutes before harvest and Western blotting. (C) Gene expression of STAT3 targets was examined by quantitative PCR after the treatment with 1 μM of PS-Gp130 with or without IL-6 stimulation as described above. Data shown are 3 independent experiments (n = 3); SD is shown. Unpaired Student’s t test; ***P < 0.005; **P < 0.01; *P < 0.05. (D) A total of 1 μM of PS-SC-MYC or PS-MYC was incubated with cells for 48 hours before the gene expression of MYC targets was examined by quantitative PCR. […]

Substance | IL-6–induced STAT3 activation (pY705 phosphorylation) in CD8+ T cells (pY705-STAT3) | binding to exportins 1–6 (exportins 1–6) | binding to STAT5 protein (STAT5) | EGF-mediated ERK phosphorylation [1]
PDIPKEEAFGK685(Ac)YCRPESQEHPC-linker-T*C*C*A*T*G*A*G*C*T*T*C*C*T*G*A*T*G*C*T [PS-acet.-STAT3 peptide] | downregulated | not | not | –
PS-Gp130: PS-conjugated Gp130 peptide (amino acids 901–910) with phospho-Tyr905 (MPKS[pY]LPQTV; also: phosphorothioate oligonucleotide conjugate; UniProt P40189 901-910, looked up, fragment) | – | – | – | not
